# From patent publication US20090036450A1, “PYRAZOLE COMPOUNDS AND USE THEREOF” (JAPAN TOBACCO, INC., priority 2006, published 2009)
# Molecular target: T1, human liver glycogen phosphorylase (Homo sapiens, UniProt P06737)
# T1 construct: made in house; host or cells: Sf9 insect cells (suspension of disrupted cells, diluted in BES buffer, not purified)
# T1 sequence (P06737 1-847): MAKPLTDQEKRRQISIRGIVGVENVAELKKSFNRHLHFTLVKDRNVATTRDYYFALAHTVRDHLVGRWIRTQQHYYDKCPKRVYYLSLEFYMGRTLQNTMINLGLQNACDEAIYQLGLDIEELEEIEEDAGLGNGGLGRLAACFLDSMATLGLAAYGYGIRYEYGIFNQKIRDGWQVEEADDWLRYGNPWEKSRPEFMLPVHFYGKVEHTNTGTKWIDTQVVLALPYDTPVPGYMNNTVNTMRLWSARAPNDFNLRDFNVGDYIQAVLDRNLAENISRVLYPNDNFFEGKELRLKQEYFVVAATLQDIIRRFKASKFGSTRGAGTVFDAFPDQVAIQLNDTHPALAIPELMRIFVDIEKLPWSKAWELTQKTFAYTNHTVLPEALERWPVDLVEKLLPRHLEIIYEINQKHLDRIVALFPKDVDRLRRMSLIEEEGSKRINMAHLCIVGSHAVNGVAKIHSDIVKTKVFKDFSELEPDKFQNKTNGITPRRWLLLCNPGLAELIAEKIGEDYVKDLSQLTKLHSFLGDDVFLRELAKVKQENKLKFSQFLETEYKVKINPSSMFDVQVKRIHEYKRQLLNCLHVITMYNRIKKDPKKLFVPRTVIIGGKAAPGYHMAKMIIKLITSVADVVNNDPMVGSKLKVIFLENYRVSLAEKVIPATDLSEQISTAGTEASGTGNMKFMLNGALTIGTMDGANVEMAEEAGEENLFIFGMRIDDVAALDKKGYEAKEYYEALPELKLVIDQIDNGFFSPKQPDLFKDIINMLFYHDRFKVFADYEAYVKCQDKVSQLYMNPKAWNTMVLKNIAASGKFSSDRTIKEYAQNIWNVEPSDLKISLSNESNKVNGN
# Assay: Liver glycogen phosphorylase activity, forward reaction system (NADPH detection at 340 nm)
# Format: biochemical
# Conditions: enzyme inhibitory activity against recombinant human liver glycogen phosphorylase (Sf9 cell lysate), room temperature, 75 minutes
# Procedure: The glycogen phosphorylase activity was determined by a method using a forward reaction system.
# The following method was used to determine the glycogen phosphorylase activity using a forward reaction system. Glucose-1-phosphate generated from glycogen by glycogen phosphorylase was converted to glucono-δ-lactone-6-phosphate by transphosphorylation and dehydrogenation reactions using phosphoglucomutase and glucose-6-phosphate dehydrogenase (G6PDH). At this time, NADPH generated from NADP in the dehydrogenation reaction by G6PDH was detected.
# An enzyme solution of human liver glycogen phosphorylase was obtained by diluting with 100 mmol/L BES buffer (pH 6.8, containing 2 mmol/L EDTA) a suspension disrupted Sf9 cells in which a recombinant human liver glycogen phosphorylase was forcibly expressed. Phosphate buffer (16 mmol/L KH2PO4, containing 24 mmol/L Na2HPO4) was used as a substrate solution. A mixture of 8 U/mL phosphoglucomutase and 60 U/mL G6PDH was prepared with BES buffer. A reaction buffer (1.4 mmol/L NADP, 30 mmol/L MgCl2, 8 μmol/L glucose-1,6-diphosphate, 8 mg/mL glycogen, 40 mmol/L BES, containing 0.8 mmol/L EDTA) and a glucose solution (75 mmol/L glucose and 100 mmol/L BES, containing 2 mmol/L EDTA) were prepared. A test substance was dissolved in 1% DMSO aqueous solution.
# To a mixture of the glucose solution (20 μL), the substrate solution (20 μL), the reaction buffer (100 μL), and the test substance (20 μL), the recombinant human liver glycogen phosphorylase solution (20 μL), and a mixture (20 μL) of phosphoglucomutase and G6PDH were added to initiate an enzymatic reaction. To a control, 1% DMSO aqueous solution was added instead of the test substance. A solution to which the substrate was not added was used as a blank. After initiation of the reaction, absorbance at 340 nm was measured immediately. The reaction was performed at room temperature for 75 minutes, and then absorbance at 340 nm was measured again. The enzyme activity was obtained by deducting the change in absorbance of the blank for 75 minutes from the change in absorbance over 75 minutes. The inhibition rate (%) of the test substance was calculated by “(1−(enzyme activity of test substance)/(enzyme activity of control))×100”.
# “IC50” represents an enzyme inhibitory activity against human liver glycogen phosphorylase.
row,IC50,Structure (SMILES)
1,< 100 nM,"Cn1cccc1-c1nnc(CNC(=O)c2cc(NC(=O)c3cc(F)c(F)cc3Cl)[nH]n2)o1 [Example 1-75, 5-(2-chloro-4,5-difluoro-benzoylamino)-1H-pyrazole-3-carboxylic acid [5-(1-methyl-1H-pyrrol-2-yl)-[1,3,4]oxadiazol-2-ylmethyl]-amide]"
2,> 300 nM,"O=C(NCc1nnc(-c2ccc(C(F)(F)F)cc2)o1)c1cc(NC(=O)c2cc(F)c(F)cc2Cl)[nH]n1 [Example 1-55, 5-(2-chloro-4,5-difluoro-benzoylamino)-1H-pyrazole-3-carboxylic acid [5-(4-trifluoromethyl-phenyl)-[1,3,4]oxadiazol-2-ylmethyl]-amide]"
3,< 100 nM,"Cc1nc(-c2ccccc2F)c(CNC(=O)c2cc(NC(=O)c3cc(F)c(F)cc3Cl)[nH]n2)o1 [Example 1-27, 5-(2-chloro-4,5-difluoro-benzoylamino)-1H-pyrazole-3-carboxylic acid [4-(2-fluoro-phenyl)-2-methyl-oxazol-5-ylmethyl]-amide]"
4,100 to 300 nM,CCOC(=O)Cc1nnc(CNC(=O)c2cc(NC(=O)c3cc(F)c(F)cc3Cl)[nH]n2)o1 [Example 1-62]
5,< 100 nM,"Cc1cccc(-c2nc(C)oc2CNC(=O)c2cc(NC(=O)c3cc(F)c(F)cc3Cl)[nH]n2)c1 [Example 1-30, 5-(2-chloro-4,5-difluoro-benzoylamino)-1H-pyrazole-3-carboxylic acid [4-(3-methyl-phenyl)-2-methyl-oxazol-5-ylmethyl]-amide]"
6,< 100 nM,"O=C(NCc1nnc(Cc2ccccc2)o1)c1cc(NC(=O)c2cc(F)c(F)cc2Cl)[nH]n1 [Example 1-74, 5-(2-chloro-4,5-difluoro-benzoylamino)-1H-pyrazole-3-carboxylic acid (5-benzyl-[1,3,4]oxadiazol-2-ylmethyl)-amide]"
7,< 100 nM,"Cc1ccccc1-c1nnc(CNC(=O)c2cc(NC(=O)c3cc(F)c(F)cc3Cl)[nH]n2)o1 [Example 1-53, 5-(2-chloro-4,5-difluoro-benzoylamino)-1H-pyrazole-3-carboxylic acid [5-(2-methyl-phenyl)-[1,3,4]oxadiazol-2-ylmethyl]-amide]"
8,< 100 nM,"CSCCc1oc(C)nc1CNC(=O)c1cc(NC(=O)c2cc(F)c(F)cc2Cl)[nH]n1 [Example 1-24, 5-(2-chloro-4,5-difluoro-benzoylamino)-1H-pyrazole-3-carboxylic acid [2-methyl-5-(2-methylsulfanyl-ethyl)-oxazol-4-ylmethyl]-amide]"
9,100 to 300 nM,"Cc1onc(-c2ccccc2F)c1CNC(=O)c1cc(NC(=O)c2cc(F)c(F)cc2Cl)[nH]n1 [Example 1-17, 5-(2-chloro-4,5-difluoro-benzoylamino)-1H-pyrazole-3-carboxylic acid [3-(2-fluoro-phenyl)-5-methylisoxazol-4-ylmethyl]-amide]"
10,< 100 nM,Cc1nc(COCC(F)(F)F)oc1CNC(=O)c1cc(NC(=O)c2cc(F)c(F)cc2Cl)[nH]n1 [Example 1-46]
11,< 100 nM,"Cc1nc(Cc2ccccc2)oc1CNC(=O)c1cc(NC(=O)c2cc(F)c(F)cc2Cl)[nH]n1 [Example 1-41, 5-(2-chloro-4,5-difluoro-benzoylamino)-1H-pyrazole-3-carboxylic acid (2-benzyl-4-methyl-oxazol-5-ylmethyl)-amide]"
12,< 100 nM,"O=C(NCc1cnn(-c2ccc(F)cc2)c1C1CC1)c1cc(NC(=O)c2cc(F)c(F)cc2Cl)[nH]n1 [Example 1-67, 5-(2-chloro-4,5-difluoro-benzoylamino)-1H-pyrazole-3-carboxylic acid [5-cyclopropyl-1-(4-fluoro-phenyl)-1H-pyrazol-4-ylmethyl]-amide]"
13,< 100 nM,"Cc1nc(C2CCCCC2)c(CNC(=O)c2cc(NC(=O)c3cc(F)c(F)cc3Cl)[nH]n2)o1 [Example 1-38, 5-(2-chloro-4,5-difluoro-benzoylamino)-1H-pyrazole-3-carboxylic acid (4-cyclohexyl-2-methyl-oxazol-5-ylmethyl)-amide]"
14,100 to 300 nM,Cc1nc2c(s1)CN(C(=O)c1cc(NC(=O)c3cc(F)c(F)cc3Cl)[nH]n1)CC2 [Example 1-12]
15,< 100 nM,"Cc1nc(C(=O)O)oc1CNC(=O)c1cc(NC(=O)c2cc(F)c(F)cc2Cl)[nH]n1 [Example 3-14, sodium 5-({[5-(2-chloro-4,5-difluoro-benzoylamino)-1H-pyrazole-3-carbonyl]-amino}-methyl)-4-methyl-oxazole-2-carboxylate]"
16,< 100 nM,"O=C(NCc1ccc(C(=O)O)o1)c1cc(NC(=O)c2cc(F)c(F)cc2Cl)[nH]n1 [Example 3-1, 5-(2-chloro-4,5-difluoro-benzoylamino)-1H-pyrazole-3-carboxylic acid (2-carboxy-furan-5-ylmethyl)-amide]"
17,< 100 nM,"Cc1nc(CO)c(CNC(=O)c2cc(NC(=O)c3cc(F)c(F)cc3Cl)[nH]n2)o1 [Example 1-35, 5-(2-chloro-4,5-difluoro-benzoylamino)-1H-pyrazole-3-carboxylic acid (4-hydroxymethyl-2-methyl-oxazol-5-ylmethyl)-amide]"
18,< 100 nM,"COC(=O)c1nc(C)c(CNC(=O)c2cc(NC(=O)c3cc(F)c(F)cc3Cl)[nH]n2)o1 [Example 1-50, 5-(2-chloro-4,5-difluoro-benzoylamino)-1H-pyrazole-3-carboxylic acid (2-methoxycarbonyl-4-methyl-oxazol-5-ylmethyl)-amide]"
19,< 100 nM,"CN(C)c1ccc(-c2nnc(CNC(=O)c3cc(NC(=O)c4cc(F)c(F)cc4Cl)[nH]n3)o2)cc1 [Example 1-54, 5-(2-chloro-4,5-difluoro-benzoylamino)-1H-pyrazole-3-carboxylic acid [5-(4-dimethylamino-phenyl)-[1,3,4]oxadiazol-2-ylmethyl]-amide]"
20,< 100 nM,"Cc1nc(COCC(=O)O)oc1CNC(=O)c1cc(NC(=O)c2cc(F)c(F)cc2Cl)[nH]n1 [Example 3-7, 5-(2-chloro-4,5-difluoro-benzoylamino)-1H-pyrazole-3-carboxylic acid (2-carboxymethoxymethyl-4-methyl-oxazol-5-ylmethyl)-amide]"
21,< 100 nM,"Cc1nc(-c2ccc(CNC(=O)c3cc(NC(=O)c4cc(F)c(F)cc4Cl)[nH]n3)s2)cs1 [Example 1-4, 5-(2-chloro-4,5-difluoro-benzoylamino)-1H-pyrazole-3-carboxylic acid [5-(2-methyl-thiazol-4-yl)-thiophen-2-ylmethyl]-amide]"
22,< 100 nM,"Cc1nc(C2CC2)ncc1CNC(=O)c1cc(NC(=O)c2cc(F)c(F)cc2Cl)[nH]n1 [Example 1-80, 5-(2-chloro-4,5-difluoro-benzoylamino)-1H-pyrazole-3-carboxylic acid (2-cyclopropyl-4-methyl-pyrimidin-5-ylmethyl)-amide]"
23,< 100 nM,"Cc1nc(C2CCCCC2)oc1CNC(=O)c1cc(NC(=O)c2cc(F)c(F)cc2Cl)[nH]n1 [Example 1-40, 5-(2-chloro-4,5-difluoro-benzoylamino)-1H-pyrazole-3-carboxylic acid (2-cyclohexyl-4-methyl-oxazol-5-ylmethyl)-amide]"
24,< 100 nM,"Cc1nc(C(=O)N(C)Cc2ccccc2)oc1CNC(=O)c1cc(NC(=O)c2cc(F)c(F)cc2Cl)[nH]n1 [Example 3-25, 5-({[5-(2-chloro-4,5-difluoro-benzoylamino)-1H-pyrazole-3-carbonyl]-amino}-methyl)-4-methyl-oxazole-2-carboxylic acid benzyl-methyl-amide]"
